13 molecules from patent US10723705B2, “Heterocyclic compounds and uses thereof” (Incyte Corporation, priority 2015, dated 2020) can be followed below.

Broadly, the IC50 is the midpoint of a concentration-inhibition curve.

Each structure is given as a SMILES string. Where two headings read alike, the source gives them in different places. Some results are limits rather than exact numbers.

For the test, the target named is Human recombinant Histone Deacetylase 8 (HDAC8) (Homo sapiens (Human), UniProt Q9BY41). As to the kind of experiment: HDAC8 Enzymatic Assay (HDAC-Glo I/II luminescence). The class given is biochemical. Summed up:
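Human recombinant HDAC8 (1.5 nM final) preincubated with compound for 30 min, then reacted with 50 μM Boc-GAK(Ac)-aminoluciferin plus trypsin-containing developer for 15 min at room temperature, pH 8.0, 0.5% DMSO. Luminescence read-out; IC50 from percent control activity versus log concentration.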

Where [1] appears, read: class symbols, Table 14, read-out: HDAC8 IC50.

Chain of Human recombinant Histone Deacetylase 8 (HDAC8) (Q9BY41 whole entry): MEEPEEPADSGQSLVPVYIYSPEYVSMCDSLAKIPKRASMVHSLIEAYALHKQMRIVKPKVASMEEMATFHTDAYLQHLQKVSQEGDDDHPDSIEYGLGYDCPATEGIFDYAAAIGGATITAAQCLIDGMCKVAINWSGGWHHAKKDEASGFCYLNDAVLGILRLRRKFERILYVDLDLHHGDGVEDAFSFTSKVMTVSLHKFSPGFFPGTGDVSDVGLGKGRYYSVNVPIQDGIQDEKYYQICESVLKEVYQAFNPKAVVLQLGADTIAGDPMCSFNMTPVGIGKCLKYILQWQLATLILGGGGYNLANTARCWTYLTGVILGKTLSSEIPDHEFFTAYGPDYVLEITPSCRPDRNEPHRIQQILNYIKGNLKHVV

`Cn1nccc1-c1cccc2c(C#CC3CC3)n(C(Cc3ccccc3)C(=O)NO)nc12` (stereo not shown) [Compound I-0137, 2-(3-(cyclopropylethynyl)-7-(1-methyl-1H-pyrazol-5-yl)-2H-indazol-2-yl)-N-hydroxy-3-phenylpropanamide]: under setting [1], the concentration for half-maximal inhibition (IC50) is at most 0.05 µM. Take `NC(=O)c1ccc(-c2cccc3c(C#CC4CC4)n(C(Cc4ccccc4)C(=O)NO)nc23)cc1` (stereo not shown) [Compound I-0138, 4-(3-(cyclopropylethynyl)-2-(1-(hydroxyamino)-1-oxo-3-phenylpropan-2-yl)-2H-indazol-7-yl)benzamide]: the IC50 under setting [1] is at most 0.05 µM. On to `CN(C)C(=O)c1ccc(-c2cccc3c(C#CC4CC4)n(C(Cc4ccccc4)C(=O)NO)nc23)cc1` (stereo not shown) [Compound I-0139, 4-(3-(cyclopropylethynyl)-2-(1-(hydroxyamino)-1-oxo-3-phenylpropan-2-yl)-2H-indazol-7-yl)-N,N-dimethylbenzamide], for which the 50% inhibitory concentration (IC50) under setting [1] was at most 0.05 µM.

As for `NC(=O)c1ccc(-c2nccc3c(C#CC4CC4)n(C(Cc4ccccc4)C(=O)NO)nc23)cc1` (stereo not shown) [Compound I-0140, 4-(3-(cyclopropylethynyl)-2-(1-(hydroxyamino)-1-oxo-3-phenylpropan-2-yl)-2H-pyrazolo[3,4-c]pyridin-7-yl)benzamide], the IC50 under setting [1] was at most 0.05 µM.

On to `CNC(=O)c1ccc(-c2nccc3c(C#CC4CC4)n(C(Cc4ccccc4)C(=O)NO)nc23)cc1` (stereo not shown) [Compound I-0141, 4-(3-(cyclopropylethynyl)-2-(1-(hydroxyamino)-1-oxo-3-phenylpropan-2-yl)-2H-pyrazolo[3,4-c]pyridin-7-yl)-N-methylbenzamide], for which, under setting [1], the IC50 is at most 0.05 µM.

For the molecule `CN(C)C(=O)c1ccc(-c2nccc3c(C#CC4CC4)n(C(Cc4ccccc4)C(=O)NO)nc23)cc1` (stereo not shown) [Compound I-0142, 4-(3-(cyclopropylethynyl)-2-(1-(hydroxyamino)-1-oxo-3-phenylpropan-2-yl)-2H-pyrazolo[3,4-c]pyridin-7-yl)-N,N-dimethylbenzamide], under setting [1], the IC50 was at most 0.05 µM.

Take `O=C(NO)C(Cc1ccccc1)n1ncc2ccc(-c3cnn(CCN4CCOCC4)c3)cc21` (stereo not shown) [Compound I-0143, N-hydroxy-2-(6-(1-(2-morpholinoethyl)-1H-pyrazol-4-yl)-1H-indazol-1-yl)-3-phenylpropanamide]: the 50% inhibitory concentration (IC50) under setting [1] is above 0.5 µM. As to `CC(=O)N1CCN(c2cncc(-c3ccc4cnn(C(Cc5ccccc5)C(=O)NO)c4c3)c2)CC1` (stereo not shown) [Compound I-0144, 2-(6-(5-(4-acetylpiperazin-1-yl)pyridin-3-yl)-1H-indazol-1-yl)-N-hydroxy-3-phenylpropanamide], under setting [1], the IC50 is 0.05 to 0.2 µM.

On to `CC1CCN(c2cccc3nn(C(Cc4ccccc4)C(=O)NO)cc23)CC1` (stereo not shown) [Compound I-0145, N-hydroxy-2-(4-(4-methylpiperidin-1-yl)-2H-indazol-2-yl)-phenylpropanamide], for which the 50% inhibitory concentration (IC50) (HDAC8, read-out: IC50) turned out to be 0.717 µM. On to `CC(C)Oc1ccc(-c2cccc3nn(C(Cc4ccccc4)C(=O)NO)cc23)cn1` (stereo not shown) [Compound I-0146, N-hydroxy-2-(4-(6-isopropoxypyridin-3-yl)-2H-indazol-2-yl)-3-phenylpropanamide], for which the half-maximal inhibitory concentration (IC50) under setting [1] fell in the range of 0.2 to 0.5 µM. Consider `COCc1ccc(-c2cccc3nn(C(Cc4ccccc4)C(=O)NO)cc23)cc1` (stereo not shown) [Compound I-0147, N-hydroxy-2-(4-(4-(methoxymeth-yl)phenyl)-2H-indazol-2-yl)-3-phenylpropanamide], for which the concentration for half-maximal inhibition (IC50) under setting [1] lay in the range of 0.2 to 0.5 µM.

Regarding `CN1CCN(c2ccc(-c3cccc4nn(C(Cc5ccccc5)C(=O)NO)cc34)cc2)CC1` (stereo not shown) [Compound I-0148, N-hydroxy-2-(4-(4-(4-methylpiperazin-1-yl)phenyl)-2H-indazol-2-yl)-3-phenylpropanamide], under setting [1], the concentration for half-maximal inhibition (IC50) lay within 0.05 to 0.2 µM.

In the case of `CN1CCN(c2ccc(-c3cccc4nn(C(Cc5ccccc5)C(=O)NO)cc34)cn2)CC1` (stereo not shown) [Compound I-0149, N-hydroxy-2-(4-(6-(4-methylpiperazin-1-yl)pyridin-3-yl)-2H-indazol-2-yl)-3-phenylpropanamide], the IC50 under setting [1] lay within 0.05 to 0.2 µM.
